Results from patent EP0194905A1, “5',5'''-P1,P4-diadenosine-tetraphosphate alpha-,beta-phosphorylase and its use in the preparation of isotope-labelled nucleotides” (priority 1985, dated 1986).
Blank lines part the entries; values can stand above or below the molecule they belong to.

Legend:
[1] = target: T1, Ap4A-phosphorylase (Saccharomyces cerevisiae, UniProt P16550); test: Ap4A-phosphorylase activity: initial rates of phosphorolysis of Ap4A and related substrates (PEI-cellulose TLC, radioactivity); assay type: biochemical; details: for conversion de l'Ap4A when phosphate is replaced: 10 mM in place of phosphate, 500 µM MnCl2 or 5 mM MgCl2; for substrat de l'Ap4A-phosphorylase (behaviour as substrate): compounds structurally related to Ap4A, in presence of phosphate; for vitesses de phosphorolyse, % du taux observé pour l'Ap4A: standard incubation medium, 500 uM substrate
T1 construct: l'Ap4A phosphorylase est constituée d'une seule chaîne; endogenous in cells; host or cells: Saccharomyces cerevisiae yeast cells; enzyme purified by ammonium sulfate, DEAE-Sephacel, Sephadex G-100, hydroxyapatite and Sephadex G-75 superfine
T1 sequence (P16550 1-321): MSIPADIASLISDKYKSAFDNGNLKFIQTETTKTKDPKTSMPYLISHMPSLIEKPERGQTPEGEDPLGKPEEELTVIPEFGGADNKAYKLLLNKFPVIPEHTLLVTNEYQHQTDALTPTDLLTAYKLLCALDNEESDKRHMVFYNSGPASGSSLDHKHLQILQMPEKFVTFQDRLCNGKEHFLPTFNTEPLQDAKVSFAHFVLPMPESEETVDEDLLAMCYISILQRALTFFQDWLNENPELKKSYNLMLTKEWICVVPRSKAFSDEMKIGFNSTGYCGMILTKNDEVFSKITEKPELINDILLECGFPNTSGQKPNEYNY
Method: (§1) L'activité de l'Ap4A-phosphorylase a été déterminée à 37°C. Le mélange d'incubation standard contenait, dans un volume final de 25 ou 50 µl, du tampon 50 mM acide 4-(2-hydroxyéthyl)-1-pipérazine éthane sulfonique (Hepes)/KOH (pH 8,2), 1 mM 2-mercaptoéthanol, 2 % de glycérol, 500 µM MnCl2, […], 500 uM de [^3H]Ap4A (1 pmol = 20 cpm), de la sérum-albumine bovine (0,4 mg/ml) et une solution d'enzyme diluée de façon appropriée en présence de 2 mg/ml de sérum-albumine bovine. Dans certains cas, l'activité a été suivie à l'aide de [^32P]K2HPO4.
Pour mesurer les vitesses initiales, de phosphorolyse, on a déposé des prélèvements de 2 µl sur des couches minces de polyéthylèneimine-cellulose contenant un indicateur fluorescent (foumies par MERCK) après 2, 4, 8 et 16 min de réaction.
Des standards d'Ap4A et d'ADP ont été ajoutés et les chromatogrammes ont été développés tout d'abord pendant 15 min dans le méthanol à 75 %, puis pendant 1 h dans du chlorure de lithium 0,85 M. Les valeurs Rf des composés standards étaient respectivement de 0,15 (Ap4A) et 0,25 (ADP), la valeur Rf du phosphate était de 0,55. Les taches d'ADP visualisées sous lumière ultraviolette ont été découpées et immergées dans 5 ml de mélange de scintillation et la radioactivité a été mesurée. Au cours des différentes étapes de purification, l'enzyme a été testée en l'absence de radioactivité; les fractions actives ont été afors directement identifiées sur les chromatogrammes sous lumière ultraviolette.
La dégradation enzymatique de l'Ap4A par l'enzyme selon l'invention, c'est-à-dire l'Ap4A-phosphorylase, a été caractérisée par identification des produits de ladite réaction de dégradation par co-migration avec des composés standards authentiques sur des couches minces de polyéthylèneimine-cellulose. Cette identification a été confirmée sur une colonne de Lichrosorb RP-18 (MERCK) en utilisant un système HPLC (chromatographie liquide haute performance) avec une élution isocratique par du phosphate de potassium 25 mM, pH 5,3 selon la méthode de BREVET et al. décrite dans J.Biol.Chem. (1982), 257. 14613-14615. La colonne de chromatographie a été utilisée avec une pompe modèle 112, un injecteur modèle 210 et un détecteur d'absorbance modèle 160 (matériel BECKMAN), en opérant à 254 nm avec une sensibilité de 0,002 unité d'absorbance pleine échelle.

[2] = system: GMP-réductase; details: enzyme from Artemia; cited from earlier work
[3] = target: T2, GMP-réductase (Homo sapiens, UniProt P36959); details: enzyme from human erythrocytes; cited from earlier work
T2 construct: host or cells: human erythrocytes
T2 sequence (P36959 1-345): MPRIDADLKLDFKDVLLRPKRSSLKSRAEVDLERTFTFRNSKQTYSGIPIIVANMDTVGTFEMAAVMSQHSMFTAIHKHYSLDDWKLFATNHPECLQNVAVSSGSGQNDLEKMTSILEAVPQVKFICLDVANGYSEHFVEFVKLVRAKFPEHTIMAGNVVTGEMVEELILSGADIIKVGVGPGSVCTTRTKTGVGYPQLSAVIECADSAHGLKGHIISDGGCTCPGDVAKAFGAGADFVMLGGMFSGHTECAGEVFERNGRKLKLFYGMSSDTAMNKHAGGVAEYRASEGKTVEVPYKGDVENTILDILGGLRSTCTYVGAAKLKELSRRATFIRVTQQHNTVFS

[4] = target: T3, AMP-désaminase (Rattus norvegicus, UniProt P10759); details: enzyme from rat muscle; cited from earlier work
T3 construct: host or cells: rat muscle
T3 sequence (P10759 1-747): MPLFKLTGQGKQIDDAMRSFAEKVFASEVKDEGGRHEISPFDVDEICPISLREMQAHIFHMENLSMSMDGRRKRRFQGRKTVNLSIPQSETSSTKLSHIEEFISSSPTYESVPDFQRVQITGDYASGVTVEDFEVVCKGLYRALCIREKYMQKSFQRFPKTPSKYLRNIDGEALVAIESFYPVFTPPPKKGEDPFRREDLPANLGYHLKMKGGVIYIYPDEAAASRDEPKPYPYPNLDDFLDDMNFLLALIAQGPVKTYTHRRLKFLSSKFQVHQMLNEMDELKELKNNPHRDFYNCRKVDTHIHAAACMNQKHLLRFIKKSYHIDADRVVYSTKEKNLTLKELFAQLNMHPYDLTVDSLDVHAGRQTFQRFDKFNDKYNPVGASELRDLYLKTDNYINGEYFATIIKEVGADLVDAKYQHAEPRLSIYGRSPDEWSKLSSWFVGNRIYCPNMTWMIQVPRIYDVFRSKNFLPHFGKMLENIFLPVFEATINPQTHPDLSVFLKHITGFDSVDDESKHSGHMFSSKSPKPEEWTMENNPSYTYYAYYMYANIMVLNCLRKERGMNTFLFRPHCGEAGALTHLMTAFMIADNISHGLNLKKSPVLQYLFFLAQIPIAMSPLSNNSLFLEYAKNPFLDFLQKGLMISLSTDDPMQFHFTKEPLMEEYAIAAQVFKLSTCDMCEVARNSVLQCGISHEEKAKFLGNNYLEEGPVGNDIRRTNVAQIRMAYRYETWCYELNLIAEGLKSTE

[5] = target: T1, Ap4A-phosphorylase; test: Effect of divalent metal ions on initial rates of Ap4A phosphorolysis; assay type: biochemical
Method: Les vitesses initiales de la phosphorolyse de l'Ap4A ont été mesurées dans un milieu contenant 50 mM Hepes/KOH (pH 8,2); 1 mM de 2-mercaptoéthanol; 2 % de glycérol et 0,4 mg/ml de sérum-albumine bovine, 5 mM K2HPO4; 500 uM [^3H] Ap4A et différentes concentrations de chlorures de manganèse, de magnésium, de calcium, de cobalt ou de cadmium.
Les résultats obtenus sont indiqués sur le graphe de la figure 2 annexée sur lequel on a porté en ordonnées les vitesses initiales de phosphorolyse de l'Ap4A exprimées en pourcentages de la vitesse observée avec 500 uM MnCl2-(36 s-') et en abscisses la concentration en ions métalliques exprimée en mM.
Les différentes courbes correspondent respectivement aux chlorures ci-après : courbe A (O - O) = MnCl2 [formula] [formula] [formula] [formula]

[6] = substrate: Nc1ncnc2c1ncn2[C@@H]1O[C@H](COP(=O)(O)OS(=O)(=O)O)[C@@H](O)[C@H]1O; test: purified protein, by the assay type; details: other: NDP-P* exchange at optimum pH, 37°C
[7] = substrate: Nc1ncnc2c1ncn2[C@@H]1O[C@H](COP(=O)(O)OP(=O)(O)OP(=O)(O)OP(=O)(O)OC[C@H]2O[C@@H](n3cnc4c(N)ncnc43)[C@H](O)[C@@H]2O)[C@@H](O)[C@H]1O; test: Ap4A-phosphorylase activity: initial rates of phosphorolysis of Ap4A and related substrates (PEI-cellulose TLC, radioactivity); assay type: biochemical, Saccharomyces cerevisiae; details: other: 37°C, 50 mM Hepes/KOH pH 8,2, 500 µM MnCl2, 10 mM K2HPO4, 1 mM 2-mercaptoéthanol, 2 % glycérol, pH 8.2
Method: as §1
Pour mesurer les vitesses initiales, de phosphorolyse, on a déposé des prélèvements de 2 µl sur des couches minces de polyéthylèneimine-cellulose contenant un indicateur fluorescent (foumies par MERCK) après 2, 4, 8 et 16 min de réaction. […]
La dégradation enzymatique de l'Ap4A par l'enzyme selon l'invention, c'est-à-dire l'Ap4A-phosphorylase, a été caractérisée par identification des produits de ladite réaction de dégradation par co-migration avec des composés standards authentiques sur des couches minces de polyéthylèneimine-cellulose. […] La colonne de chromatographie a été utilisée avec une pompe modèle 112, un injecteur modèle 210 et un détecteur d'absorbance modèle 160 (matériel BECKMAN), en opérant à 254 nm avec une sensibilité de 0,002 unité d'absorbance pleine échelle.

[8] = substrate: Nc1ccn([C@@H]2O[C@H](COP(=O)(O)OP(=O)(O)O)[C@@H](O)[C@H]2O)c(=O)n1; test: NDP-P* exchange reaction catalysed by Ap4A-phosphorylase; assay type: biochemical, Saccharomyces cerevisiae; details: other: NDP-P* exchange at optimum pH, 37°C
Text: (§2) On a estimé les constantes de Michaelis Km et les vitesses d'échange pour différents NDP au pH optimum, lequel varie en fonction des substrats. Les résultats obtenus sont rassemblés dans le tableau Il ci-après ainsi que les conditions expérimentales.

[9] = substrate: Nc1nc2c(ncn2[C@@H]2O[C@H](COP(=O)(O)OP(=O)(O)O)[C@@H](O)[C@H]2O)c(=O)[nH]1; test: as above; assay type: biochemical, Saccharomyces cerevisiae; details: other: NDP-P* exchange at optimum pH, 37°C
Text: as §2

[10] = substrate: Nc1ncnc2c1ncn2[C@@H]1O[C@H](COP(=O)(O)OP(=O)(O)O)[C@@H](O)[C@H]1O; test: as above; assay type: biochemical, Saccharomyces cerevisiae; details: other: NDP-P* exchange at optimum pH, 37°C
Text: as §2

[11] = substrate: O=c1ccn([C@@H]2O[C@H](COP(=O)(O)OP(=O)(O)O)[C@@H](O)[C@H]2O)c(=O)[nH]1; test: as above; assay type: biochemical, Saccharomyces cerevisiae; details: other: NDP-P* exchange at optimum pH, 37°C
Text: as §2

Molecule: Nc1ncnc2c1ncn2[C@@H]1O[C@H](COP(=O)(O)OP(=O)(O)OP(=O)(O)OP(=O)(O)OP(=O)(O)OC[C@H]2O[C@@H](n3cnc4c(N)ncnc43)[C@H](O)[C@@H]2O)[C@@H](O)[C@H]1O (single isomer, unassigned; diad) [Ap5A, Diadénosine pentaphosphate]
substrat de l'Ap4A-phosphorylase (behaviour as substrate) [1]: substrats | vitesses de phosphorolyse, % du taux observé pour l'Ap4A [1]: 50%

Molecule: Nc1ncnc2c1ncn2[C@@H]1O[C@H](COP(=O)(O)OP(=O)(O)OP(=O)(O)OP(=O)(O)OC[C@H]2O[C@@H](n3cnc4c(N)ncnc43)[C@H](O)[C@@H]2O)[C@@H](O)[C@H]1O (single isomer, unassigned; diad) [Ap4A, 5',5"'-P^1,P^4-diadénosine-tétraphosphate]
vitesse de la réaction de phosphorolyse ([1]; Ap4A saturant): 36 s⁻¹ | substrat de l'Ap4A-phosphorylase (behaviour as substrate) [1]: substrat préféré | effect on activité de l'AMP-désaminase [4]: double l'activité

Molecule: MnCl2
vitesse initiale de phosphorolyse de l'Ap4A ([5]; 500 uM MnCl2, 5 mM K2HPO4, 500 uM [3H]Ap4A, pH 8,2 (100 % reference of figure 2)): 36 s-' | activity of metal ions in supporting phosphorolyse de l'Ap4A ([5]; chlorides of Mn, Mg, Ca, Co, Cd at various concentrations (figure 2)): les plus actifs

B1: Ap4A-phosphorylase (Saccharomyces cerevisiae S288C) (protein)
chain: MSIPADIASLISDKYKSAFDNGNLKFIQTETTKTKDPKTSMPYLISHMPSLIEKPERGQTPEGEDPLGKPEEELTVIPEFGGADNKAYKLLLNKFPVIPEHTLLVTNEYQHQTDALTPTDLLTAYKLLCALDNEESDKRHMVFYNSGPASGSSLDHKHLQILQMPEKFVTFQDRLCNGKEHFLPTFNTEPLQDAKVSFAHFVLPMPESEETVDEDLLAMCYISILQRALTFFQDWLNENPELKKSYNLMLTKEWICVVPRSKAFSDEMKIGFNSTGYCGMILTKNDEVFSKITEKPELINDILLECGFPNTSGQKPNEYNY
notes: l'Ap4A phosphorylase est constituée d'une seule chaîne; endogenous in cells; host or cells: Saccharomyces cerevisiae yeast cells; enzyme purified by ammonium sulfate, DEAE-Sephacel, Sephadex G-100, hydroxyapatite and Sephadex G-75 superfine
Km [6]: 500 µM | Km [7]: 60 µM | Km [8]: 2800 µM | Km [9]: 700 µM | Km [10]: 740 µM | Km [11]: 3700 µM

Second part, led by results:

conversion de l'Ap4A when phosphate is replaced [1]: aucune conversion
Molecule: pyrophosphate

conversion de l'Ap4A when phosphate is replaced [1]: aucune conversion
Molecule: sulfate

substrat de l'Ap4A-phosphorylase (behaviour as substrate) [1]: ne soient pas des substrats
Molecule: Nc1ncnc2c1ncn2[C@@H]1O[C@H](COP(=O)(O)OP(=O)(O)OP(=O)(O)OP(=O)(O)O)[C@@H](O)[C@H]1O [p4A, Adénosine tétraphosphate]

substrat de l'Ap4A-phosphorylase (behaviour as substrate) [1]: ne soient pas des substrats
Molecule: Nc1ncnc2c1ncn2[C@@H]1O[C@H](COP(=O)(O)OP(=O)(O)OP(=O)(O)OC[C@H]2O[C@@H](n3cnc4c(N)ncnc43)[C@H](O)[C@@H]2O)[C@@H](O)[C@H]1O (single isomer, unassigned; diad) [Ap,A, Diadénosine triphosphate]

substrat de l'Ap4A-phosphorylase (behaviour as substrate) [1]: substrats | vitesses de phosphorolyse, % du taux observé pour l'Ap4A [1]: 40%
Molecule: Nc1nc2c(ncn2[C@@H]2O[C@H](COP(=O)(O)OP(=O)(O)OP(=O)(O)OP(=O)(O)OC[C@H]3O[C@@H](n4cnc5c(=O)[nH]c(N)nc54)[C@H](O)[C@@H]3O)[C@@H](O)[C@H]2O)c(=O)[nH]1 [Gp4G, Diguanosine tétraphosphate]
effect on GMP-réductase [2]: effet positif spécifique | effect on GMP-réductase [3]: effet positif spécifique

Km ([1]; phosphorolysis of Ap4A, read-out: Km du phosphate): 1000 µM
Molecule: phosphate
